Test results published in publication PMC6152089, “Steroid Alkaloids from Holarrhena africana with Strong Activity against Trypanosoma brucei rhodesiense” (Molecules : A Journal of Synthetic Chemistry and Natural …, 2017).
Values joined by “and” are separate entries in the source; they are usually repeats but may differ in a detail not shown here. Equal entries are not always repeated. Where two headings read alike, the source gives them in different places.

Key:
[1] = Cytotoxicity against L6 cells; type: cell-based, rat; conditions: rat
Experimental: (§1) In vitro tests for biological activity of the crude extracts, fractions, sub-fractions and isolated compounds against Trypanosoma brucei rhodesiense (bloodstream trypomastigotes, STIB 900 strain), Trypanosoma cruzi (amastigotes, Tulahuen C4 strain), Leishmania donovani (amastigotes, MHOM-ET-67/L82 strain), Plasmodium falciparum (intraerythrocytic form, NF54 strain) and cytotoxicity test against mammalian L6 cell line from rat skeletal myoblasts were performed according to the established standard protocol. However, only the activity data against Trypanosoma brucei rhodesiense is reported due to the inactivity of the tested substances against other parasites at the concentration tested.

[2] = test system: Trypanosoma brucei rhodesiense (bloodstream trypomastigotes, STIB 900 strain); assay: In vitro anti-trypanosomal activity against Tbr; type: cell-based
Experimental: as §1

[3] = test system: L6 rat skeletal myoblasts; assay: Cytotoxicity against L6 cells; type: cell-based
Experimental: as §1

[4] = Trypanosoma brucei, isolated compounds, average of two determinations ± absolute deviation, read-out: Tbr (STIB900) IC50 (µg/mL)
[5] = isolated compounds, average of two determinations ± absolute deviation, read-out: Tbr (STIB900) IC50
[6] = Trypanosoma brucei, isolated compounds, average of two determinations ± absolute deviation, read-out: Tbr (STIB900) IC50
[7] = isolated compounds, average of two determinations (a: one replicate), read-out: Cytotoxicity L6 Cells IC50
[8] = isolated compounds, average of two determinations (a: one replicate), read-out: Cytotoxicity L6 Cells IC50 (µg/mL)

| Molecule | IC50 [1] | IC50 [2, 4] [µg/mL] | IC50 [2, 5] [µM] | IC50 [2, 6] [µM] | further results |
| --- | --- | --- | --- | --- | --- |
| CC(=O)[C@H]1CC[C@H]2[C@@H]3CC=C4C[C@@H](N)CC[C@]4(C)[C@H]3CC[C@]12C [Compound 1, 3β-holaphyllamine] | 1.61 µg/mL and 5.1 µM | 0.127 ± 0.088 | 0.4 ± 0.28 | – | – |
| CC(=O)N[C@H]1CC[C@@]2(C)C(=CC[C@H]3[C@@H]4CC[C@H](C(C)=O)[C@@]4(C)CC[C@@H]32)C1 [Compound 2, holaphyllamine acetamide] | 5.49 µg/mL and 15.4 µM | 1.73 ± 0.47 | 4.83 ± 1.33 | 4.8 to 14.9 | – |
| CN[C@H]1CC[C@@]2(C)C(=CC[C@H]3[C@@H]4CC[C@H](C(C)=O)[C@@]4(C)CC[C@@H]32)C1 [Compound 3, 3β-N-methylholaphyllamine] | 0.829 µg/mL and 2.48 µM | 0.025 ± 0.001 | 0.075 ± 0.004 | 0.08 ± 0.01 | – |
| CC(=O)[C@H]1CC[C@H]2[C@@H]3CC=C4C[C@H](N)CC[C@]4(C)[C@H]3CC[C@]12C [Compound 4, 3α-holaphyllamine] | 5 µg/mL and 15.9 µM | 0.117 ± 0.05 | – | 0.37 ± 0.159 | – |
| CC(=O)[C@H]1CC[C@H]2[C@@H]3CC[C@H]4C[C@@H](N)CC[C@]4(C)[C@H]3CC[C@]12C [Compound 5, 3β-dihydroholaphyllamine] | – | 0.213 ± 0.008 | 0.672 ± 0.027 | 0.67 ± 0.03 | IC50 [1, 7]: 17.4 ± 1.36 µM; IC50 [1, 8]: 5.51 ± 0.43 µg/mL |
| CC(=O)[C@H]1CC[C@H]2[C@@H]3CC[C@H]4C[C@H](N)CC[C@]4(C)[C@H]3CC[C@]12C [Compound 6, 3α-dihydroholaphyllamine] | – | 0.382 ± 0.238 | – | 1.21 ± 0.75 | IC50 [1, 7]: 17 ± 1.2 µM; IC50 [1, 8]: 5.38 ± 0.39 µg/mL |
| C[C@H]1[C@H]2CC[C@H]3[C@@H]4CCC5=CC(=O)C=C[C@]5(C)[C@H]4CC[C@]23CN1C [Compound 7, holadienine] | – | 4.81 ± 0.68 | – | 14.9 ± 2.1 | – |
| C[C@@H]1N=C[C@]23C[C@H](O)[C@H]4[C@@H](CCC5=CC(=O)C=C[C@@]54C)[C@@H]2CC[C@H]13 [Compound 8, holonamine] | 21.1 µg/mL and 64.9 µM | 2.82 ± 0.76 | – | 8.67 ± 2.33 | – |
| C[C@H]1[C@H]2CC[C@H]3[C@@H]4C=CC5=CC(=O)CC[C@]5(C)[C@H]4CC[C@]23CN1C [Compound 9, cona-4,6-dienin-3-one] | 41.9 µg/mL and 129 µM | 5.69 ± 0.07 | – | 17.5 ± 0.2 | – |
| C[C@H]1[C@H]2CC[C@H]3[C@@H]4C(=O)C=C5C=CCC[C@]5(C)[C@H]4CC[C@]23CN1C [Compound 10, cona-3,5-dienin-7-one] | – | 2.4 ± 0.3 | – | 7.37 ± 0.94 | IC50 [1, 7]: 41.7 ± 18.9 µM; IC50 [1, 8]: 13.6 ± 6.2 µg/mL |
| C[C@@H]1NC[C@]23CC[C@H]4[C@@H](CC=C5C[C@@H](N(C)C)CC[C@@]54C)[C@@H]2CC[C@H]13 [Compound 11, conessimine] | 17.3 µg/mL and 50.4 µM | 0.057 ± 0.028 | 0.167 ± 0.083 | 0.17 ± 0.08 | – |
| CN[C@H]1CC[C@@]2(C)C(=CC[C@H]3[C@@H]4CC[C@@H]5[C@H](C)N(C)C[C@@]54CC[C@@H]32)C1 [Compound 12, isoconessimine] | 9.38 µg/mL and 27.4 µM | 0.056 ± 0.038 | 0.166 ± 0.112 | 0.17 ± 0.11 | – |
| C[C@H]1[C@H]2CC[C@H]3[C@@H]4CC=C5C[C@@H](N(C)C)CC[C@]5(C)[C@H]4CC[C@]23CN1C [Compound 13, conessine] | – | 0.149 ± 0.031 | 0.419 ± 0.087 | 0.42 ± 0.09 | IC50 ([1]; L6 rat skeletal myoblast cells, isolated compounds, average of two determinations (a: one replicate), read-out: Cytotoxicity L6 Cells IC50): 61.2 µM; IC50 ([1]; L6 rat skeletal myoblast cells, isolated compounds, average of two determinations (a: one replicate), read-out: Cytotoxicity L6 Cells IC50 (µg/mL)): 21.8 µg/mL |
| CN[C@H]1CC[C@@]2(C)C(=CC[C@H]3[C@@H]4CC[C@@H]5[C@H](C)N(C)C[C@@]54[C@H](OC(=O)CC=C(C)C)C[C@@H]32)C1 [Compound 14, holarrhesine] | 6.51 µg/mL and 14.3 µM | 0.054 ± 0.038 | 0.119 ± 0.084 | 0.12 ± 0.08 | – |
| CC(C)=CCC(=O)O[C@@H]1C[C@H]2[C@@H](CC=C3C[C@@H](N(C)C)CC[C@@]32C)[C@@H]2CC[C@@H]3[C@H](C)N(C)C[C@]312 [Compound 15, holarrhetine] | 45.8 µg/mL and 97.7 µM | 0.777 ± 0.182 | – | 1.66 ± 0.39 | – |
| CN[C@H]1CC[C@@]2(C)C(=CC[C@H]3[C@@H]4CC[C@@H]5[C@H](C)N(C)C[C@@]54[C@H](O)C[C@@H]32)C1 [Compound 16, holarrheline] | 64.8 µg/mL and 181 µM | 2.94 ± 0.37 | – | 8.21 ± 1.03 | – |
| C[C@H]1[C@H]2CC[C@H]3[C@@H]4CC=C5C[C@@H](N(C)C)CC[C@]5(C)[C@H]4C[C@@H](O)[C@]23CN1C [Compound 17, holarrhenine] | 46.4 µg/mL and 125 µM | 7.78 ± 2.23 | – | 20.9 ± 6 | – |
| C[C@]12C=CC(=O)C=C1CC[C@@H]1[C@@H]2[C@@H](O)C[C@]2(C)C(=O)CC[C@@H]12 [Compound 18, kurchinin] | – | 3.64 ± 0.21 | – | – | – |
| Nc1nc(N)nc(Nc2ccc([As]3SCC(CO)S3)cc2)n1 (stereo not shown) [melarsoprol, reference compound] | – | – | – | – | IC50 ([2]; Trypanosoma brucei, read-out: Tbr IC50): 0.002 ± 0.001 µg/mL |
| COc1cc([C@@H]2c3cc4c(cc3[C@H](O)[C@H]3COC(=O)[C@H]23)OCO4)cc(OC)c1OC [podophyllotoxin, reference compound] | – | – | – | – | IC50 ([1]; Table 1, Leaves, L6 cells (c: one replicate), read-out: Cytotox. L6 IC50): 0.004 ± 0.001 µg/mL |
| N^3-isopentenyl adenine [Compound 19] | – | – | – | – | Cytotoxicity L6 Cells IC50 [3]: 61.30 ± 4.24 µg/mL; IC50 [3]: 302 ± 6.8 µM; Tbr (STIB900) IC50 ([2]; isolated compounds, average of two determinations ± absolute deviation): 5.03 ± 0.54 µg/mL |
